# Experimental data published in a melting point compilation (Tetko et al.).
row,SMILES,melting point [°C]
1,O=[N+]([O-])c1cc(-c2ncco2)cc([N+](=O)[O-])c1,130
2,O=[N+]([O-])c1cc[nH]n1,173 to 175
3,CC(=O)Nc1ccccc1CCc1ccccc1,117
4,Cn1ncc2c(NCCOC(=O)c3cc([N+](=O)[O-])cc([N+](=O)[O-])c3)ncnc21,299
5,COc1ccccc1OC,22.5
6,COC(=O)c1sc(SC)c(S(=O)(=O)C(C)C)c1N,151 to 155
7,N#CCc1c(F)cccc1Cl,42
8,Cc1ccccc1NC(=O)c1ccccc1,146
9,Cc1cc(N)ccc1O,176
10,CCCCOC(=O)CC(C)=O,-35.6
11,Cc1c(C#N)cccc1C#N,136
12,COC(=O)c1sc(N(C)C)c(C#N)c1N,240 to 243
13,CC(=O)OC1C(C2COC(C)(C)O2)OC2OC(C)(C)OC21 (stereo unspecified),60 to 62
14,O=C(Nc1ccccc1)C1CCCC/C1=C\Cc1ccccc1 (stereo unspecified),99 to 100
15,NS(=O)(=O)c1ccc(S(=O)(=O)CCO)c(F)c1,165
16,CCOC(=O)c1ccc(-c2ccccc2)cc1,49
17,CCOc1nc2ccccc2c(=O)n1N,97 to 98
18,Fc1cccc(Cl)c1C(Cl)(Cl)Cl,38 to 43
19,O=Cc1ccc(C(=O)O)s1,169
20,Cc1ccc(CC(=O)Nc2ccc(C)cc2)cc1,163
21,CCOC(=O)Cc1cc(CC(=O)OCC)c(NC(=O)OCC)cc1NC(=O)OCC,140
22,CN(C)CCOc1ccc(N)cc1,55 to 57
23,CCOC(=O)c1ccc(-n2c(C)ccc2C)cc1,88 to 90

row,SMILES,melting point [°C]
1,COc1ccc(C(N)C(N)c2ccc(OC)cc2)cc1 (stereo unspecified),148 to 152
2,CC1NC(C)SC(C)S1 (stereo unspecified),46
3,Clc1ncnc2sccc12,105
4,O=C(CCl)c1ccc(Cl)cc1Cl,54
5,CCCCCCCCCCCCCCCCc1ccccc1,25 to 29
6,CC1CN2CC(=O)Nc3ccc(Cl)cc3C2(c2ccccc2)O1 (stereo unspecified),186
7,CON(C)C(=O)Nc1ccc(Oc2ccc3c(c2)OC(C)(OC)CC3(C)C)cc1 (stereo unspecified),102
8,COC(=O)c1cc2ccccc2[nH]1,151 to 153
9,CCOC(=O)[C@H](CCc1ccccc1)N[C@@H](C)C(=O)O,148 to 153
10,Cn1nc(-c2cccs2)cc1CN,77 to 78
11,C/C=C/Cl,-99
12,CC(C)CCCC(C)C1CCC2C3CCC4CCCCC4(C)C3CCC12C (stereo unspecified),79 to 80
13,N#C/C(=N/Nc1ccc(Cl)cc1)c1nc(-c2ccc(Cl)cc2)cs1,240
14,C/C(=N\NC(N)=O)c1ccc(C)cc1,204
15,C/C=C(\C)c1ccccc1,-23.5
16,CN(C(=O)C(F)(F)C(F)(F)C(F)(F)C(F)(F)C(F)(F)C(F)(F)C(F)(F)C(F)(F)F)C1CCCCC1,57
17,CC(=O)OCC1OC(n2cnc3c(=O)[nH]c(N)nc32)C(OC(C)=O)C1OC(C)=O (stereo unspecified),224 to 233
18,COC(=O)NS(=O)(=O)c1ccc(N)cc1,230
19,CC1=C(C(=O)Nc2ccccc2)SCCO1,91.5
20,C#CC1(O)CCC2C3CCC4=CC(=O)CCC4C3CCC21C (stereo unspecified),204
21,COc1c(Cl)c(C)c2c(c1Cl)OC(=O)c1c(C)c(Cl)c(O)c(Cl)c1O2,232
22,CC(C)(C)OC(=O)NCC1CCNCC1,106 to 108
23,COC1C(O)C(C)OC(OC2C(Oc3cccc4c(O)c5c(=O)oc6ccc(C)c7c(=O)oc(c34)c5c67)OC(C)C(O)C2O)C1O (stereo unspecified),185

row,SMILES,melting point [°C]
1,CN=C(NC)c1cc(C(C)(C)C)c(O)c(C(C)(C)C)c1,206
2,Nc1ccc(O)cc1C(=O)O,233 to 234
3,Cc1ccc(-c2cc(N)n(-c3ccccc3)n2)cc1,173 to 176
4,N#Cc1c(O)ccc([N+](=O)[O-])c1O,239 to 240
5,C[Si]1(C)O[Si](C)(C)O[Si](C)(C)O[Si](C)(C)O[Si](C)(C)O[Si](C)(C)O[Si](C)(C)O[Si](C)(C)O1,31.5
6,CCSc1nc(N)nc(C(C)C)n1,115 to 117
7,CSC(S)=Nc1ccc(Br)cc1,133 to 134
8,COc1ccc(/C=C2\CCCC3=C2NC(=S)NC3c2ccc(OC)cc2)cc1 (stereo unspecified),184
9,O=C(O)c1cc(I)c(O)c(I)c1,237
10,O=C1C=C(/C=C/c2ccccc2)CCC1,65 to 67
11,O=C(O)c1cccc(C(=O)O)n1,248 to 250
12,CCOO,-100
13,O=C(O)CCCc1ccc2ccc3cccc4ccc1c2c34,185 to 190
14,COC(=O)c1c(OC)c(OC)c(C(=O)OC)c(C(=O)OC)c1OC,52 to 55
15,CC(C)OC(=O)CCCCC(=O)OC(C)C,-1.1
16,CCOc1cccc2ccccc12,5.5
17,Cc1c(C)c(CBr)c(CBr)c(CBr)c1CBr,205
18,COc1ccc(-c2n[nH]cc2C=O)cc1,160 to 161
19,N#Cc1ccc(C(F)(F)F)cc1Cl,83
20,Clc1ccc(C(Cl)Cl)c(Cl)c1Cl,84
21,Cc1c(N/N=C(/C#N)c2nc(-c3ccccc3)cs2)c(=O)n(-c2ccccc2)n1C,226
22,CCO[Si](C)(C)OCC,-70
23,CC(=O)Oc1c(-c2ccccc2)n(C(C)=O)c2cc([N+](=O)[O-])c(/C(Cl)=C/c3ccccc3)cc12,57 to 58

row,SMILES,melting point [°C]
1,C/C(CCc1oc2ccccc2c1-c1ccc(C)o1)=N/O,104 to 105
2,OCc1ccccc1-c1ccco1,72
3,CC[C@@]1(O)CC[C@]2(C)[C@H]3CC[C@]4(C)C(O)CC[C@H]4[C@@H]3CC[C@@]2(C)C1 (stereo partly specified),168 to 169
4,CC(=O)c1cc2c(cc1N)OCO2,168 to 171
5,Nc1ccc(I)cn1,128
6,CCOC(=O)CN(C(=O)CCl)c1c(CC)cccc1CC,50
7,CNCc1ccc(-c2cncnc2)cc1,45 to 46
8,COC(=O)c1ccccc1-n1c(SC)nc2ccccc2c1=O,178 to 180
9,COC(=O)CSCCC(N)=S,78 to 81
10,O=C1CCSc2ccccc21,29
11,CC(=O)OCC1OC(C(N)=O)C(OC(C)=O)C(OC(C)=O)C1OC(C)=O (stereo unspecified),127 to 130
12,N#Cc1cc(I)ccc1F,72
13,Brc1cc(Br)c(Oc2ccccc2)c(Br)c1,85 to 86
14,CN(c1c(F)c(F)c(C#N)c(F)c1F)[N+](=O)[O-],53
15,CC1(C)CCCC(O)C1 (stereo unspecified),11.5
16,CCCCCCCCCCCCCCCC(N)=O,107
17,O=Cc1ccc(CBr)cc1,99 to 100
18,CCCCCCCCCCCCC(CCCCCCCCCCC)CCCCCCCCCCCC,9.7
19,CCCCNCCO,-2
20,COc1ccc(-c2csc(/C(C#N)=N\Nc3ccc(Br)cc3)n2)cc1,196
21,O=C(O)Cc1ccc2c(c1)OCO2,128 to 132
22,O=C(Nc1ccc([N+](=O)[O-])cc1)C(C(F)(F)F)(C(F)(F)F)C(F)(F)F,280 to 282
